target: Epidermal growth factor receptor (Homo sapiens, UniProt P00533); test: Inhibition of wild-type EGFR expressed using baculovirus expression system by ELISA
Sequence (P00533 whole entry): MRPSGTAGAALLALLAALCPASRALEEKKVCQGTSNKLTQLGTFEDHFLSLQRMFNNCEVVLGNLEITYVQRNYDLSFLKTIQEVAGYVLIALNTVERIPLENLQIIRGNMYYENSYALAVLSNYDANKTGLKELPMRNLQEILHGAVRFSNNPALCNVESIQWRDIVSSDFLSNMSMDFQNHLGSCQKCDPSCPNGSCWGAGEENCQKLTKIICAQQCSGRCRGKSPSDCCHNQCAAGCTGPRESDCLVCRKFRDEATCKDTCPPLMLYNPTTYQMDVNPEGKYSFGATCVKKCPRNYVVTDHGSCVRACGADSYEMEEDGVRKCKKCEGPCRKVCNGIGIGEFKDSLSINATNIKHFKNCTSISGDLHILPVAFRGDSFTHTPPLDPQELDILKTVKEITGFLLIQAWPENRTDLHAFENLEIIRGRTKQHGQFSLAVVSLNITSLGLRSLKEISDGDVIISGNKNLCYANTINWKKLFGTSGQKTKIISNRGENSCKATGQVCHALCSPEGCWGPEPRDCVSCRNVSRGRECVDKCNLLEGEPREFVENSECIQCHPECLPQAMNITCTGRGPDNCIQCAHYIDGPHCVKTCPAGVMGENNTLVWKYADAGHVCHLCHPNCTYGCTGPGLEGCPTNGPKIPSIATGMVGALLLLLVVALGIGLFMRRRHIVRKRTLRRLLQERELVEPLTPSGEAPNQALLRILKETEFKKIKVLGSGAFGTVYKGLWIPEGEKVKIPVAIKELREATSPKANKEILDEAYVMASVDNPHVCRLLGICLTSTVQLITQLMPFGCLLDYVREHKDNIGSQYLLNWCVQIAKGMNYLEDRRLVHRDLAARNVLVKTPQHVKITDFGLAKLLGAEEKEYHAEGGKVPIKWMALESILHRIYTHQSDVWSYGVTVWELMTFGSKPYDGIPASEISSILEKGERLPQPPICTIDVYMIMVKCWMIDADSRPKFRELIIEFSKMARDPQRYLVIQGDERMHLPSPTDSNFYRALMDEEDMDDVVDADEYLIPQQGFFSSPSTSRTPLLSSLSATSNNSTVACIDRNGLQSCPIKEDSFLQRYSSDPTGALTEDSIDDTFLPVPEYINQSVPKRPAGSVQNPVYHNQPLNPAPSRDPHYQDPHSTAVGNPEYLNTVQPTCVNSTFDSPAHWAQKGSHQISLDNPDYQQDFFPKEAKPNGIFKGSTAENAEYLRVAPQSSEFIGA

| IC50 | SMILES |
| --- | --- |
| > 100 µM | CNc1nc(N=NCc2ccc(OC)cc2)nc(Nc2ccccc2)n1 |
| > 100 µM | CNc1nc(N=NCc2ccc(O)cc2)nc(Nc2ccccc2)n1 |
| > 100 µM | Cn1cc(NC(=O)CN=O)c(=O)n1-c1ccccc1 |

Source: BindingDB's records for doi:10.1016/j.bmcl.2011.12.067 (Dalian University of Technology, 2012)
